A short description of the series: Solubility in water. Type of series: physicochemical.

Structures are written as SMILES. Converted amounts (≈) assume the structure as drawn.

As for `CC(C)Cn1cnc2c(N)nc3ccccc3c21` [imiquimod, 1-(2-methylpropyl)-1H-imidazo[4,5-c]quinolin-4-amine], the solubility (in general, the dissolved amount per volume that the medium holds) came out at 0.79 µg/mL (≈ 3.29 µM).

These data come from patent US7906525B2, “Reduction of imiquimod impurities at four months using refined oleic acid” (priority 2004, dated 2011).
